Molecular target: T1, Recombinant human mPGES-1 (Homo sapiens, UniProt O14684)
T1 construct: made in house; host or cells: CHO cells (crude microsomal fractions)
T1 sequence (O14684 1-152): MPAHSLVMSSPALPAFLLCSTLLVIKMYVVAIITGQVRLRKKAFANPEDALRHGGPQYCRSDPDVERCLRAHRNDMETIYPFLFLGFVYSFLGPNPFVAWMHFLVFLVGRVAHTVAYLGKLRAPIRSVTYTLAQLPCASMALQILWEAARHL
Experiment: In-vitro screening of mPGES-1 inhibitors (inhibition of PGE2 formation from PGH2, HTRF detection)
Assay type: biochemical
Conditions: mPGES-1 enzyme; for inhibition at 1 µM: 1 μM test compound, read-out: Percentage inhibition at 1 μM; for inhibition at 10 µM: 10 μM test compound, read-out: Percentage inhibition at 10 μM; for IC50: class symbols
Source text: In-Vitro Protocol for Screening of mPGES-1 Inhibitors: mPGES-1 (Microsomal prostaglandin E synthase-1) is a microsomal enzyme that converts endoperoxide substrate PGH2 (prostaglandin H2) to product PGE2 (prostaglandin E2) by isomerization in the presence of reduced glutathione (GSH). mPGES-1 inhibitors were screened by assessing their ability to inhibit formation of PGE2 from PGH2 in the presence of mPGES-1 using an anti-PGE2 antibody based detection method. Recombinant human mPGES-1 was generated in-house by expression in CHO cells (Ouellet M et al. (2002), Protein Expression and Purification 26: 489-495). The assay was set up using crude microsomal fractions at a protein concentration of 40-60 μg/mL. Test compounds were prepared in 100% dimethyl sulfoxide (DMSO) to obtain 20 mM stock solution and then diluted using assay buffer comprising 0.1 M Potassium phosphate buffer with 2 mM EDTA. The final concentration of DMSO in the reaction was 0.5% (v/v). Negative controls were comprised of all assay reagents except the enzyme. Positive controls were comprised of the enzyme reaction in the absence of any inhibitor. Test compounds were incubated for 10 minutes in assay buffer containing 2.5 mM GSH and mPGES-1 enzyme followed by addition of PGH2 at a concentration of 15 μM for 1 minute. The reaction was stopped by addition of Stannous chloride (11 mg/ml) and PGE2 levels were measured ([…] et al. (2005), Journal of Biomolecular Screening 10(6) 599-605; Goedken R E et al. (2008), Journal of Biomolecular Screening 13 (7): 619-625) by HTRF kit (CisBio)). Inhibition of mPGES-1 enzyme activity was measured using the percent of reaction occurring in the positive control. Concentration response curves were plotted using percent inhibition of maximum enzyme reaction. The IC50 value was calculated from the concentration response curve by nonlinear regression analysis using GraphPad PRISM software.

Compound | inhibition at 1 µM (crude microsomal fractions) [%] | inhibition at 10 µM (crude microsomal fractions) [%] | IC50 [µM] | inhibition at 3 µM (3 μM test compound, crude microsomal fractions, read-out: Percentage inhibition at 3 μM) [%]
COc1cc(-n2nc(-c3c(F)cccc3Cl)[nH]c2=O)ccc1C(=O)Nc1cc(C(F)(F)F)ccc1F [Example-36, 4-(3-(2-Chloro-6-fluorophenyl)-5-oxo-4,5-dihydro-1H-1,2,4-triazol-1-yl)-N-(2-fluoro-5-(trifluoromethyl)phenyl)-2-methoxybenzamide] | 97.3 | 98.9 | < 0.05 | –
Cc1ccc(Cl)cc1NC(=O)c1ccc(-n2nc(-c3c(F)cccc3Cl)[nH]c2=O)cc1 [Example-37, N-(5-Chloro-2-methylphenyl)-4-(3-(2-chloro-6-fluorophenyl)-5-oxo-4,5-dihydro-1H-1,2,4-triazol-1-yl)benzamide] | 51 | 94.3 | – | –
COc1cc(-n2nc(-c3c(F)cccc3Cl)[nH]c2=O)ccc1C(=O)Nc1cc(Cl)ccc1C [Example-38, N-(5-Chloro-2-methylphenyl)-4-(3-(2-chloro-6-fluorophenyl)-5-oxo-4,5-dihydro-1H-1,2,4-triazol-1-yl)-2-methoxybenzamide] | 87.4 | 84.9 | 0.05 to 0.1 | –
COc1cc(-n2nc(-c3c(F)cccc3Cl)[nH]c2=O)ccc1C(=O)Nc1ccc(C)cc1F [Example-39, 4-(3-(2-Chloro-6-fluorophenyl)-5-oxo-4,5-dihydro-1H-1,2,4-triazol-1-yl)-N-(2-fluoro-4-methylphenyl)-2-methoxybenzamide] | 90.1 | 96.4 | 0.05 to 0.1 | –
COc1cc(-n2nc(-c3c(F)cccc3Cl)[nH]c2=O)ccc1-c1nc(-c2ccc(Cl)cc2)no1 [Example-40, 3-(2-Chloro-6-fluorophenyl)-1-(4-(3-(4-chlorophenyl)-1,2,4-oxadiazol-5-yl)-3-methoxyphenyl)-1H-1,2,4-triazol-5(4H)-one] | 89 | 90.7 | < 0.05 | –
COc1cc(OC)cc(-c2noc(-c3ccc(-n4nc(-c5c(F)cccc5Cl)[nH]c4=O)cc3OC)n2)c1 [Example-41, 3-(2-Chloro-6-fluorophenyl)-1-(4-(3-(3,5-dimethoxyphenyl)-1,2,4-oxadiazol-5-yl)-3-methoxyphenyl)-1H-1,2,4-triazol-5(4H)-one] | 58.8 | 87.1 | – | –
COc1cc(-n2nc(-c3c(Cl)cccc3Cl)[nH]c2=O)ccc1C(=O)Nc1cccc(C(F)(F)F)c1 [Example-42, 4-(3-(2,6-Dichlorophenyl)-5-oxo-4,5-dihydro-1H-1,2,4-triazol-1-yl)-2-methoxy-N-(3-(trifluoromethyl)phenyl)benzamide] | 96.5 | 99.7 | < 0.05 | –
COc1cc(-n2nc(-c3c(Cl)cccc3Cl)[nH]c2=O)ccc1C(=O)Nc1ccc(F)c(C(F)(F)F)c1 [Example-43, 4-(3-(2,6-Dichlorophenyl)-5-oxo-4,5-dihydro-1H-1,2,4-triazol-1-yl)-N-(4-fluoro-3-(trifluoromethyl)phenyl)-2-methoxybenzamide] | 98.6 | 99 | < 0.05 | –
COc1cc(-n2nc(-c3c(Cl)cccc3Cl)[nH]c2=O)ccc1C(=O)Nc1cc(C(F)(F)F)ccc1F [Example-44, 4-(3-(2,6-Dichlorophenyl)-5-oxo-4,5-dihydro-1H-1,2,4-triazol-1-yl)-N-(2-fluoro-5-(trifluoromethyl)phenyl)-2-methoxybenzamide] | 97.4 | 99 | < 0.05 | –
COc1cc(-n2nc(-c3c(F)cccc3Cl)[nH]c2=O)ccc1C(=O)Nc1nc2ccc(F)cc2s1 [Example-45, 4-(3-(2-Chloro-6-fluorophenyl)-5-oxo-4,5-dihydro-1H-1,2,4-triazol-1-yl)-N-(6-fluorobenzo[d]thiazol-2-yl)-2-methoxybenzamide] | 81.7 | 90.1 | < 0.05 | –
COc1cc(-n2nc(-c3c(F)cccc3Cl)[nH]c2=O)ccc1C(=O)Nc1nc2ccccc2[nH]1 [Example-46, N-(1H-Benzo[d]imidazol-2-yl)-4-(3-(2-chloro-6-fluorophenyl)-5-oxo-4,5-dihydro-1H-1,2,4-triazol-1-yl)-2-methoxybenzamide] | 59.8 | 72.1 | – | –
COc1cc(-n2nc(-c3c(F)cccc3Cl)[nH]c2=O)ccc1-c1nc(-c2cc(F)cc(C(F)(F)F)c2)no1 [Example-47, 3-(2-Chloro-6-fluorophenyl)-1-(4-(3-(3-fluoro-5-(trifluoromethyl)phenyl)-1,2,4-oxadiazol-5-yl)-3-methoxyphenyl)-1H-1,2,4-triazol-5(4H)-one] | 89.5 | 96.5 | < 0.05 | –
COc1cc(-n2nc(-c3c(F)cccc3Cl)[nH]c2=O)ccc1C(=O)Nc1nnc(C(F)(F)F)s1 [Example-48, 4-(3-(2-Chloro-6-fluorophenyl)-5-oxo-4,5-dihydro-1H-1,2,4-triazol-1-yl)-2-methoxy-N-(5-(trifluoromethyl)-1,3,4-thiadiazol-2-yl)benzamide] | 98.3 | 100 | < 0.05 | –
COc1cc(-n2nc(-c3c(Cl)cccc3Cl)[nH]c2=O)ccc1-c1nc(-c2ccc(Cl)cc2)no1 [Example-49, 1-(4-(3-(4-Chlorophenyl)-1,2,4-oxadiazol-5-yl)-3-methoxyphenyl)-3-(2,6-dichlorophenyl)-1H-1,2,4-triazol-5(4H)-one] | 89.2 | 96.3 | < 0.05 | –
COc1cc(-n2nc(-c3c(Cl)cccc3Cl)[nH]c2=O)ccc1-c1nc(C(C)C)no1 [Example-50, 3-(2,6-Dichlorophenyl)-1-(4-(3-isopropyl-1,2,4-oxadiazol-5-yl)-3-methoxyphenyl)-1H-1,2,4-triazol-5(4H)-one] | 95.3 | 99.8 | 0.05 to 0.1 | –
O=c1[nH]c(-c2c(F)cccc2Cl)nn1-c1ccc(-c2nc(-c3ccc(Cl)cc3)no2)cc1 [Example-51, 3-(2-Chloro-6-fluorophenyl)-1-(4-(3-(4-chlorophenyl)-1,2,4-oxadiazol-5-yl)phenyl)-1H-1,2,4-triazol-5(4H)-one] | 88.3 | 86 | < 0.05 | –
COc1cc(-n2nc(-c3cc(CNC(=O)C4CC4)ccc3Cl)[nH]c2=O)ccc1C(=O)Nc1cccc(C(F)(F)F)c1 [Example-52, 4-(3-(2-Chloro-5-(cyclopropanecarboxamidomethyl)phenyl)-5-oxo-4,5-dihydro-1H-1,2,4-triazol-1-yl)-2-methoxy-N-(3-(trifluoromethyl)phenyl)benzamide] | 96.4 | 98.3 | < 0.05 | –
COc1cc(-n2nc(-c3c(C)cccc3Cl)[nH]c2=O)ccc1C(=O)Nc1ccc(F)c(C(F)F)c1 [Example-53, 4-(3-(2-Chloro-6-methylphenyl)-5-oxo-4,5-dihydro-1H-1,2,4-triazol-1-yl)-N-(3-(difluoromethyl)-4-fluorophenyl)-2-methoxybenzamide] | 82.7 | 97.9 | < 0.05 | –
COc1cc(-n2nc(-c3c(C)cccc3Cl)[nH]c2=O)ccc1C(=O)Nc1cccc(C(F)F)c1 [Example-54, 4-(3-(2-Chloro-6-methylphenyl)-5-oxo-4,5-dihydro-1H-1,2,4-triazol-1-yl)-N-(3-(difluoromethyl)phenyl)-2-methoxybenzamide] | 89.4 | 97.5 | 0.05 to 0.1 | –
COc1cc(-n2nc(-c3c(C)cccc3Cl)[nH]c2=O)ccc1-c1nc(-c2ccc(Cl)cc2)no1 [Example-55, 3-(2-Chloro-6-methylphenyl)-1-(4-(3-(4-chlorophenyl)-1,2,4-oxadiazol-5-yl)-3-methoxyphenyl)-1H-1,2,4-triazol-5(4H)-one] | 81 | – | < 0.05 | 91.8
COc1cc(-n2nc(-c3c(C)cccc3Cl)[nH]c2=O)ccc1C(=O)Nc1cccc(C(F)(F)F)c1 [Example-56, 4-(3-(2-Chloro-6-methylphenyl)-5-oxo-4,5-dihydro-1H-1,2,4-triazol-1-yl)-2-methoxy-N-(3-(trifluoromethyl)phenyl)benzamide] | 98.1 | 98.5 | < 0.05 | –

Source: patent US10821100B2, “Triazolone compounds as mPGES-1 inhibitors” (Glenmark Pharmaceuticals S.A., priority 2012, dated 2020)
